In one experiment the test system is CCRF-CEM. Kind of experiment: In vitro antitumor activity against human leukemia CCRF-CEM cell line. It is filed as functional.
The next experiment has as its system OVCAR-4. Kind of experiment: In vitro antitumor activity against human ovarian OVCAR-4 cell line. Format: functional.
The next experiment has as its system SR. Kind of experiment: In vitro antitumor activity against human leukemia SR cell line. Format: functional.
A further experiment relates to SNB-75. Kind of experiment: In vitro antitumor activity against human CNS SNB-75 cell line. Format: functional.
The subject of another experiment is 786-0. Kind of experiment: In vitro antitumor activity against human renal 786-0 cell line. Format: functional.
The next experiment relates to ACHN. Kind of experiment: In vitro antitumor activity against human renal ACHN cell line. It is filed as functional.
The subject of the next experiment is A498. Kind of experiment: In vitro antitumor activity against human renal A498 cell line. It is filed as functional.
The subject of the next experiment is CAKI-1. Kind of experiment: In vitro antitumor activity against human renal CAKI-1 cell line. It is filed as functional.
Another experiment concerns HCT-15. Kind of experiment: In vitro antitumor activity against human Colon HCT-15 cell line. It is filed as functional.
The test system of another experiment is HCT-116. Kind of experiment: In vitro antitumor activity against human Colon HCT116 cell line. Format: functional.
The subject of the next experiment is LOX IMVI. Kind of experiment: In vitro antitumor activity against human melanoma […] cell line. Format: functional.
The subject of another experiment is MDA-MB-231. Kind of experiment: In vitro antitumor activity against human breast MDA-MB-231/ATCC cell line. It is filed as functional.
The test system of a further experiment is M14. Kind of experiment: In vitro antitumor activity against human melanoma M14 cell line. Format: functional.
The next experiment concerns Malme-3M. Kind of experiment: In vitro antitumor activity against human melanoma MALME-3M cell line. Format: functional.
A further experiment concerns NCI-H522. Kind of experiment: In vitro antitumor activity against human non-small cell lung NCI-H522 cell line. Format: functional.
A further experiment concerns NCI-H23. Kind of experiment: In vitro antitumor activity against human non-small cell lung NCI-H23 cell line.
The next experiment deals with NCI-H226. Kind of experiment: In vitro antitumor activity against human non-small cell lung NCI-H226 cell line. It is filed as functional.
Another experiment deals with NCI/ADR-RES. Kind of experiment: In vitro antitumor activity against human breast NCI/ADR-RES cell line. It is filed as functional.
The test system of the next experiment is OVCAR-3. Kind of experiment: In vitro antitumor activity against human ovarian OVCAR-3 cell line. It is filed as functional.
The test system of the next experiment is RPMI-8226. Kind of experiment: In vitro antitumor activity against human leukemia RPMI-8226 cell line. It is filed as functional.
The test system of the next experiment is SW-620. Kind of experiment: In vitro antitumor activity against human Colon SW-620 cell line. Format: functional.
In another experiment the test system is SK-MEL-5. Kind of experiment: In vitro antitumor activity against human melanoma SK-MEL-5 cell line. Format: functional.
For a further experiment, the system named is TK-10. Kind of experiment: In vitro antitumor activity against human renal TK-10 cell line. Format: functional.
The next experiment relates to UO-31. Kind of experiment: In vitro antitumor activity against human renal UO-31 cell line. It is filed as functional.
Another experiment relates to UACC-257. Kind of experiment: In vitro antitumor activity against human melanoma UACC-257 cell line. It is filed as functional.
The next experiment has as its system U-251. Kind of experiment: In vitro antitumor activity against human CNS U251 cell line. Format: functional.
A further experiment has as its system UACC-62. Kind of experiment: In vitro antitumor activity against human melanoma UACC-62 cell line. It is filed as functional.
Another experiment has as its system SF-539. Kind of experiment: In vitro antitumor activity against human CNS SF-539 cell line. It is filed as functional.

In general, GI50 refers to the concentration at which growth is held to half of that of the control. A high value points to lower sensitivity of the cells. Turning to `COc1cc2c(cc1OCCCOS(C)(=O)=O)N=C[C@@H]1CCCN1C2=O`, the GI50 in the experiment with CCRF-CEM was 52.8 µM; in the experiment with OVCAR-4, 70.3 µM; in the experiment with SR, 62.9 µM; in the experiment with SNB-75, 94.7 µM.

Take `COc1cc2c(cc1OCCOS(C)(=O)=O)N=C[C@@H]1CCCN1C2=O`: the 50% growth inhibitory concentration (GI50) in the experiment on 786-0 was determined as 17 µM; in the experiment on ACHN, 16 µM; in the experiment on A498, 17.1 µM; in the experiment on CCRF-CEM, 14.5 µM; with CAKI-1, 17.7 µM; in the experiment on HCT-15 it was 16.5 µM. Further, the GI50 in the experiment with HCT-116 was found to be 18.5 µM; in the experiment on LOX IMVI it was 15.7 µM; in the experiment with MDA-MB-231 it was 16.5 µM; with M14 it was 18.7 µM; in the experiment on Malme-3M, 13.6 µM; with NCI-H522 it was 10.9 µM. The GI50 turned out to be 12.2 µM in the experiment with NCI-H23; 15.4 µM in the experiment on NCI-H226; 13.5 µM in the experiment on NCI/ADR-RES; 16.3 µM in the experiment on OVCAR-3; 12.2 µM in the experiment with RPMI-8226; 14.6 µM with SW-620. The GI50 in the experiment with SR amounted to 11.1 µM; in the experiment on SK-MEL-5 it was 16.9 µM; in the experiment with TK-10, 18.1 µM; in the experiment with UO-31, 15.2 µM; in the experiment with UACC-257, 18.2 µM; in the experiment on U-251, 17.1 µM. Further, the GI50 with UACC-62 is 19.4 µM; in the experiment with SF-539 it was 18.6 µM.
